Assay results: patent US8575306B2, “Target and method for inhibition of bacterial RNA polymerase” (Rutgers, The State University of New Jersey, priority 2002, dated 2013)
Where a SMILES comes first, the peptide text is derived from it.

Tested on: Strain DH5α transformed with a pRL663 derivative (substituted RNAP β′ subunit)
Test: Minimum bacteriocidal concentration (MBC) assays, MccJ25-resistant rpoC mutants
Format: cell-based, Escherichia coli
Conditions: for MBC (minimum bacteriocidal concentration): 2 hr at 37° C.
Protocol: (RNAP β′ subunit comprises nearly one-half of all residues of RNAP and comprises all residues of the RNAP secondary channel). Mutagenesis using error-prone PCR was performed (Zhou (1991) Nucl. Acids Res. 19, 6052; Zhou et al., (1993) Proc. Natl. Acad. Sci. USA 90, 6081-6085) of five DNA segments spanning the length of a plasmid-borne rpoC gene (Table 1). Overall, 20 mutagenesis reactions were performed, ˜100,000 candidates were analyzed, and 22 independent plasmid-linked MccJ25-resistant mutants were isolated (Table 1). […] Complementation assays indicate that all 22 MccJ25-resistant mutants can complement an rpoC^ts mutant for growth at the non-permissive temperature, confirming that each encodes a β′ derivative functional in transcription—indeed sufficiently functional in transcription to support viability (Table 2, column 4).
A saturation mutagenesis using a set often “doped” oligodeoxyribonucleotide primers, designed to introduce all possible nucleotide substitutions at all positions of all codons for residues that line the RNAP secondary channel was performed (sequences in Table 3; methods essentially as in the following references (Ner et al., (1988) DNA 7, 127-134; Hermes et al., (1989) Gene 84, 143-151; and Niu et al., (1994) J. Mol. Biol. 243, 595-602). In total, 23 mutagenesis reactions were performed, ˜40,000 candidates were analyzed, and 105 independent plasmid-linked MccJ25-resistant mutants were isolated and characterized (Table 4).

SMILES: CC[C@H](C)[C@H](NC(=O)CNC(=O)[C@@H](NC(=O)[C@H](Cc1ccccc1)NC(=O)[C@H](Cc1ccc(O)cc1)NC(=O)[C@@H]1CCC(=O)NCC(=O)NCC(=O)N[C@@H](C)C(=O)NCC(=O)N[C@@H](Cc2c[nH]cn2)C(=O)N[C@@H](C(C)C)C(=O)N2CCC[C@H]2C(=O)N1)C(C)C)C(=O)NCC(=O)N[C@H](C(=O)N1CCC[C@H]1C(=O)N[C@H](C(=O)N[C@@H](CO)C(=O)N[C@@H](Cc1ccccc1)C(=O)N[C@@H](Cc1ccc(O)cc1)C(=O)NCC(=O)O)[C@@H](C)CC)[C@@H](C)O [MccJ25] (HELM PEPTIDE1{G.G.A.G.H.V.P.E.Y.F.V.G.I.G.T.P.I.S.F.Y.G}$PEPTIDE1,PEPTIDE1,1:R1-8:R3$$$V2.0)
- increase in MBC (18 of 22 MccJ25-resistant mutants from random mutagenesis): ≥ 50 fold
- increase in MBC (all 22 MccJ25-resistant mutants from random mutagenesis): ≥ 50 fold
- MBC (minimum bacteriocidal concentration) (β′ 428 Thr->Asn): 0.5 mg/mi
- MBC (minimum bacteriocidal concentration) (β′ 428 Thr->Ile): 0.5 mg/mi
- MBC (minimum bacteriocidal concentration) (β′ 429 Leu->Gln): 0.5 mg/mi
- MBC (minimum bacteriocidal concentration) (β′ 430 His->Tyr): 0.5 mg/mi
- MBC (minimum bacteriocidal concentration) (β′ 498 Pro->Gln): 1 mg/mi
- MBC (minimum bacteriocidal concentration) (β′ 498 Pro->Leu): 1 mg/mi
- MBC (minimum bacteriocidal concentration) (β′ 503 Ser->Pro): 0.5 mg/mi
- MBC (minimum bacteriocidal concentration) (β′ 503 Ser->Tyr): 0.5 mg/mi
- MBC (minimum bacteriocidal concentration) (β′ 504 Gln->Arg): 0.5 mg/mi
- MBC (minimum bacteriocidal concentration) (β′ 504 Gln->Glu): 0.5 mg/mi
- MBC (minimum bacteriocidal concentration) (β′ 508 Leu->Val): 0.05 mg/mi
- MBC (minimum bacteriocidal concentration) (β′ 680 Asn->Lys): 0.5 mg/mi
- MBC (minimum bacteriocidal concentration) (β′ 684 Asp->Ala): 1 mg/mi
- MBC (minimum bacteriocidal concentration) (β′ 684 Asp->Glu): 0.5 mg/mi
- MBC (minimum bacteriocidal concentration) (β′ 684 Asp->Tyr): 0.5 mg/mi
- MBC (minimum bacteriocidal concentration) (β′ 684 Asp->Vai): 0.5 mg/mi
- MBC (minimum bacteriocidal concentration) (β′ 732 Gly->Asp): 0.1 mg/mi
- MBC (minimum bacteriocidal concentration) (β′ 733 Ser->Phe): 0.1 mg/mi
- MBC (minimum bacteriocidal concentration) (β′ 733 Ser->Tyr): 0.1 mg/mi
- MBC (minimum bacteriocidal concentration) (β′ 733 Ser->Val): 0.5 mg/mi
- MBC (minimum bacteriocidal concentration) (β′ 735 Ala->Δ): 1 mg/mi
- MBC (minimum bacteriocidal concentration) (β′ 736 Gln->Pro): 0.5 mg/mi
- MBC (minimum bacteriocidal concentration) (β′ 738 Arg->Leu): 0.05 mg/mi
- MBC (minimum bacteriocidal concentration) (β′ 744 Arg->His): 0.05 mg/mi
- MBC (minimum bacteriocidal concentration) (β′ 744 Arg->Pro): 0.05 mg/mi
- MBC (minimum bacteriocidal concentration) (β′ 748 Ala->Pro): 0.1 mg/mi
- MBC (minimum bacteriocidal concentration) (β′ 775 Ser->Cys): 0.5 mg/mi
- MBC (minimum bacteriocidal concentration) (β′ 776 Thr->Ile): 0.5 mg/mi
- MBC (minimum bacteriocidal concentration) (β′ 777 His->Pro): 0.5 mg/mi
- MBC (minimum bacteriocidal concentration) (β′ 777 His->Tyr): 1 mg/mi
- MBC (minimum bacteriocidal concentration) (β′ 779 Ala->Gly): 0.5 mg/mi
- MBC (minimum bacteriocidal concentration) (β′ 779 Ala->Pro): 0.5 mg/mi
- MBC (minimum bacteriocidal concentration) (β′ 779 Ala->Thr): 1 mg/mi
- MBC (minimum bacteriocidal concentration) (β′ 780 Arg->Cys): 1 mg/mi
- MBC (minimum bacteriocidal concentration) (β′ 782 Gly->Ala): 1 mg/mi
- MBC (minimum bacteriocidal concentration) (β′ 783 Leu->Pro): 0.1 mg/mi
- MBC (minimum bacteriocidal concentration) (β′ 784 Ala->Glu): 0.5 mg/mi
- MBC (minimum bacteriocidal concentration) (β′ 785 Asp->Gly): 0.5 mg/mi
- MBC (minimum bacteriocidal concentration) (β′ 786 Thr->Ala): 0.5 mg/mi
- MBC (minimum bacteriocidal concentration) (β′ 786 Thr->Ile): 0.5 mg/mi
- MBC (minimum bacteriocidal concentration) (β′ 788 Leu->Met): 1 mg/mi
- MBC (minimum bacteriocidal concentration) (β′ 789 Lys->Arg): 0.5 mg/mi
- MBC (minimum bacteriocidal concentration) (β′ 789 Lys->Asn): 1 mg/mi
- MBC (minimum bacteriocidal concentration) (β′ 789 Lys->Gln): 1 mg/mi
- MBC (minimum bacteriocidal concentration) (β′ 790 Thr->Ala): 1 mg/mi
- MBC (minimum bacteriocidal concentration) (β′ 790 Thr->Asn): 0.5 mg/mi
- MBC (minimum bacteriocidal concentration) (β′ 790 Thr->Ile): 1 mg/mi
- MBC (minimum bacteriocidal concentration) (β′ 790 Thr->Ser): 0.5 mg/mi
- MBC (minimum bacteriocidal concentration) (β′ 922 Cys->Tyr): 0.5 mg/mi
- MBC (minimum bacteriocidal concentration) (β′ 926 Pro->Ser): 0.5 mg/mi
- MBC (minimum bacteriocidal concentration) (β′ 927 Gly->Cys): 1 mg/mi
- MBC (minimum bacteriocidal concentration) (β′ 927 Gly->Ser): 1 mg/mi
- MBC (minimum bacteriocidal concentration) (β′ 930 Leu->Met): 1 mg/mi
- MBC (minimum bacteriocidal concentration) (β′ 931 Thr->Ala): 1 mg/mi
- MBC (minimum bacteriocidal concentration) (β′ 931 Thr->Ile): 1 mg/mi
- MBC (minimum bacteriocidal concentration) (β′ 932 Met->Ile): 1 mg/mi
- MBC (minimum bacteriocidal concentration) (β′ 933 Arg->Cys): 1 mg/mi
- MBC (minimum bacteriocidal concentration) (β′ 1136 Gly->Ala): 0.5 mg/mi
- MBC (minimum bacteriocidal concentration) (β′ 1136 Gly->Cys): 1 mg/mi
- MBC (minimum bacteriocidal concentration) (β′ 1137 Gly->Aia): 0.5 mg/mi
- MBC (minimum bacteriocidal concentration) (β′ 1137 Gly->Arg): 1 mg/mi
- MBC (minimum bacteriocidal concentration) (β′ 1240 Val->Glu): 0.5 mg/mi
- MBC (minimum bacteriocidal concentration) (β′ 1241 Tyr->Cys): 0.1 mg/mi
- MBC (minimum bacteriocidal concentration) (β′ 1241 Tyr->His): 0.1 mg/mi
- MBC (minimum bacteriocidal concentration) (β′ 1241 Tyr->Ser): 0.1 mg/mi
- MBC (minimum bacteriocidal concentration) (β′ 1244 Gln->Glu): 0.1 mg/mi
- MBC (minimum bacteriocidal concentration) (β′ 1244 Gln->Leu): 0.5 mg/mi
- MBC (minimum bacteriocidal concentration) (β′ 1244 Gln->Pro): 0.1 mg/mi
- MBC (minimum bacteriocidal concentration) (β′ 1247 Lys->Gln): 0.1 mg/mi
- MBC (minimum bacteriocidal concentration) (β′ 1247 Lys->Glu): 0.1 mg/mi
- MBC (minimum bacteriocidal concentration) (β′ 1248 lle->Ser): 0.1 mg/mi
- MBC (minimum bacteriocidal concentration) (β′ multiple-substitution mutant 493 Pro->Thr, 498 Pro->Thr): 0.1 mg/mi
- MBC (minimum bacteriocidal concentration) (β′ multiple-substitution mutant 732 Gly->Asp, 733 Ser->Ala): 0.1 mg/mi
- MBC (minimum bacteriocidal concentration) (β′ multiple-substitution mutant 732 Gly->Asp, 735 Gly->Thr): 0.5 mg/mi
- MBC (minimum bacteriocidal concentration) (β′ multiple-substitution mutant 733 Ser->Val, 734 Ala->Gly): 0.1 mg/mi
- MBC (minimum bacteriocidal concentration) (β′ multiple-substitution mutant 777 His->Ser, 778 Gly->Ala): 0.5 mg/mi
